Patent US6372957B1, “Transgenic mouse comprising a MEF2 binding site operatively linked to an indicator gene and methods of use” (Board of Regents, The University of Texas System, priority 1998, dated 2002)

Assays:
[1] = test system: GAL4-MEF2C fusion protein; test: pG5E1b-luciferase (Gal-luc) reporter with GAL-MEF2C (complete open reading frame) in cardiomyocytes; format: cell-based, rat; conditions: for block of activation of GAL-MEF2C by PE: cardiomyocytes stimulated with PE
Protocol: FIG. 12A, FIG. 12B and FIG. 12C. CaM kinase and MAP kinase target different domains of MEF2. Primary neonatal rat cardiomyocytes in serum-free medium were transiently transfected with the indicated expression plasmids and luciferase activity was determined in cell extracts. FIG. 12A, cells were stimulated with PE (10 uM) or 10% FBS, as indicated, and expression of the MEF2-dependent reporter, 3×MEF2-luciferase, was assayed. FIG. 12B, cells transiently transfected with pG5E1b-luciferase (Gal-luc) and GAL-MEF2C were stimulated with PE, as in FIG. 12A, in the presence of KN62 or SB202190, as indicated. FIG. 12C, cells were transiently transfected with pG5E1b-luciferase and GAL-MEF2C (left panel) or GAL-MEF2C-ΔN (right panel) along with activated CaMKIV and MKK6, as indicated.

[2] = test system: GAL4-MEF2C fusion protein; test: GAL4-dependent reporter with GAL4 fused to the C-terminus of MEF2C (transcription activation domains) in cardiomyocytes; format: cell-based; conditions: stimulation of cardiomyocytes
Text: FIG. 6. Phenylephrine induces MEF2C transcriptional activity through a CaMK-dependent pathway. Cardiomyocytes were transiently transfected with expression vectors encoding GAL4-MEF2C and a GAL4-dependent reporter gene in the presence and absence of PE and the CaMK inhibitor KN-93.
In light of the ability of MEF2 to respond to calcium-dependent signal transduction pathways in T cells, the inventors have investigated whether the same pathways also activate MEF2 in cardiomyocytes. […] When the C-terminus of MEF2C, which contains the transcription activation domains (TADs), but lacks the MADS and MEF2 domains required for DNA binding and dimerization, is fused to the DNA binding domain of the yeast transcription factor GAL4, the resulting GAL4-MEF2C fusion protein retains sensitivity to calcineurin and CaMKIV (FIG. 5). This GAL4-MEF2C fusion protein is also activated by stimulation of cardiomyocytes with the hypertrophic agonist phenylephrine (PE) (FIG. 6).

MEF2 [3] = test: 3×MEF2-luciferase MEF2-dependent reporter in transiently transfected primary neonatal rat cardiomyocytes; format: cell-based
Text: To determine whether MEF2 was a target for hypertrophic signaling in cardiomyocytes, the inventors tested whether hypertrophy in response to phenylephrine (PE) and fetal bovine serum (FBS) activated a MEF2-dependent reporter (3×MEF2-luciferase), containing three MEF2 binding sites.

MEF2 [4] = test: MEF2 DNA binding activity in stimulated cardiomyocytes; format: cell-based, rat; conditions: cardiomyocytes stimulated with PE or FBS

Compound | block of activation of GAL-MEF2C by PE [1] | activation of GAL4-MEF2C fusion protein (C-terminus of MEF2C) [2] | activation of a reporter containing a mutant MEF2 site (MEF2 [3]; cardiomyocytes, PE or FBS) | activation of MEF2-dependent reporter (3×MEF2-luciferase) (MEF2 [3]; primary neonatal rat cardiomyocytes, serum-free medium, PE 10 uM or 10% FBS) | activity of GAL4-MEF2C fusion protein (complete open reading frame of MEF2C) ([1]; cardiomyocytes, PE or FBS) | amount of MEF2 DNA binding activity (MEF2 [4])
Oc1ccc(-c2nc(-c3ccncc3)c(-c3ccc(F)cc3)[nH]2)cc1 [SB202190] | partially blocked | – | – | – | – | –
CNC[C@H](O)c1cccc(O)c1 [PE, phenylephrine] | – | activated | not a reporter containing a mutant MEF2 site | stimulated the MEF2 reporter | stimulated activity | unchanged
CN([C@@H](Cc1ccc(OS(=O)(=O)c2cccc3cnccc23)cc1)C(=O)N1CCN(c2ccccc2)CC1)S(=O)(=O)c1cccc2cnccc12 [KN62] | partially blocked | – | – | – | – | –
